This is an account of results in PMC6646794 (Biochimica et Biophysica Acta. Molecular Cell Research, 2019).

Like-named read-outs stand apart in the source and are kept apart here.

The subject of experiment [1] is TRPM2. Conditions: cited from earlier work.
For experiment [2], the system named is wild-type TRPM2. The experiment can be described thus: Whole cell patch-clamp, wild-type TRPM2 in HEK293 cells. The experiment is classed as cell-based, human. Conditions: for whole cell current at 37 °C / whole cell current at room temperature: 200 nM free Ca2+, maximum current at +15 mV, median, 8–13 cells per condition; for effect of raising temperature to 37 °C on current: one-way ANOVA, Bonferroni. The procedure: (§1) HEK293 cells were kept at 37 °C and 5% CO2 in DMEM with 4.5 g/l glucose and GlutaMax-I (Gibco) supplemented with 10% (v/v) fetal bovine serum (Biochrom). Cells were split 1:10 to 1:20 twice a week.
For patch clamp experiments wild type HEK293 cells were transfected with expression vectors for either wild type TRPM2 or TRPM2 W1355A/I1368A 24 h before the experiments. To generate the transfection complex 2.5 μg of TRPM2 expression vector and 5 μl jetPEI reagent (PolyPlus Transfection, Strasbourg, France) were incubated for 30 min in a total volume of 250 μl (150 mM NaCl). Cells were detached from the culture bottle and adjusted to a density of 2.5 × 10^5 cells/ml. After addition of the transfection complex cells were seeded at low density to 35 mm cell culture dishes. Directly before the experiment the culture medium was replaced by bath solution (in mM: 140 N‑methyl‑D‑glucamine (NMDG), 5 KCl, 3.3 MgCl2, 1 CaCl2, 5 D‑glucose, 10 HEPES, adjusted to pH 7.4 with HCl). The replacement of Na^+ in the bath solution by NMDG (for which TRPM2 is impermeable) prevents cell rupture due to excessive current and the characteristic IV curve helps to distinguish activation of the nonselective cation channel from cells becoming leaky. […] The intracellular solution contains 200 nM free Ca^2+ (calculated using MaxChelator, http://maxchelator.stanford.edu/CaEGTA-NIST.htm). Whole cell currents were recorded using a HEKA EPC-10 amplifier and PatchMaster software (HEKA Elektronik, Lamprecht, Germany). To record TRPM2 activity, repetitive voltage ramps from −85 mV to +20 mV over 140 ms were applied every 5 s for 450 s. Before and in between ramps cells were clamped at −50 mV. Series resistance compensation was set to 70%. For temperature control the 35 mm dishes were placed inside an open culture dish incubator (DH-35i, Warner Instruments) connected to a single channel heater controller (TC-324C, Warner Instruments). Cells were continuously perfused at a flow rate of 0.3 ml/min with bath solution pre-warmed in a water bath.
For statistical analysis GraphPad Prism (v7.04 and v8.0.1; GraphPad Software) was used. Currents obtained from whole cell recordings tend to be positively skewed and were therefore log-transformed to achieve normality. After transformation all groups were normally distributed as assessed by D'Agostino & Pearson normality test. Data were tested by one-way ANOVA. p values from post-hoc comparisons between groups were adjusted for multiple comparison using Bonferroni correction. A significance level of α = 0.05 was adopted.
A general note: Patch clamp records ionic current or voltage across a cell membrane.

For experiment [3], the system named is TRPM2 W1355A I1368A. Kind of experiment: Whole cell patch-clamp, TRPM2 W1355A I1368A in HEK293 cells. The experiment is classed as cell-based, human. The procedure: as §1
The mutations W1355A and I1368A were inserted into the eukaryotic expression vector for TRPM2 (pIRES2-EGFP-TRPM2) by two sequential rounds of QuikChange mutagenesis using the following primer pairs: for W1355A: 5′-[…]-3′ and 5′-[…]-3′, for I1368A: 5′- […]-3′ and 5′-[…]-3′. The full open reading frame was confirmed by DNA sequencing (Eurofins MWG Operon, Ebersberg, Germany).
For patch clamp experiments wild type HEK293 cells were transfected with expression vectors for either wild type TRPM2 or TRPM2 W1355A/I1368A 24 h before the experiments. […] The intracellular solution contains 200 nM free Ca^2+ (calculated using MaxChelator, http://maxchelator.stanford.edu/CaEGTA-NIST.htm). Whole cell currents were recorded using a HEKA EPC-10 amplifier and PatchMaster software (HEKA Elektronik, Lamprecht, Germany). […]
For statistical analysis GraphPad Prism (v7.04 and v8.0.1; GraphPad Software) was used. […] After transformation all groups were normally distributed as assessed by D'Agostino & Pearson normality test. […]

Experiment [4] relates to NudT9H domain. The experiment can be described thus: Thermal unfolding of NudT9H by nDSF. The experiment is classed as binding, human. Conditions: NudT9H with ADPR versus without. (In DSF a fluorescence change marks the thermal transition of the protein.)
Procedure: The intrinsic fluorescence at 330 and 350 nm after excitation at 280 nm is used to monitor the fluorescence change upon heat unfolding. […] Buffer conditions were 25 mM Tris (pH 7.4), 150 mM NaCl, 2 mM CaCl2, 10% (v/v) glycerol. The first derivative of the unfolding curves was used to determine the transition midpoint. Simultaneously, protein aggregation was followed by light scattering.
[5] abbreviates: room temperature, 100 μM agonist in pipette.
[6] abbreviates: wild-type TRPM2, 100 μM agonist in pipette, room temperature to 37 °C.

As to `Nc1ncnc2c1ncn2[C@H]1C[C@H](O)[C@@H](COP(=O)(O)OP(=O)(O)OC[C@H]2OC(O)[C@H](O)[C@@H]2O)O1` (some centres unmarked) [2′-deoxy-ADPR, 2′-deoxy-adenosine diphosphate (ADP)-ribose], in experiment [1] (basal Ca2+ concentrations, ref [22]), the “TRPM2 current compared with ADPR” value was “elicits much higher TRPM2 currents than ADPR”. Also, the “Ca2+ sensitivity of TRPM2 activation” value in experiment [1] (ref [22]) is on record as “less sensitive to Ca^2+”. In addition, the “whole cell current at 37 °C” value in experiment [2] (100 μM agonist in pipette) amounted to 1.4 nA. Moreover, in experiment [2] (setting [5]), the “whole cell current at room temperature” value stood at 4.5 nA. For the same compound, in experiment [2] (setting [6]), the “effect of raising temperature to 37 °C on current” value was “did not significantly increase”. Also, the “current compared to ADPR” value in experiment [2] (wild-type TRPM2, 100 μM in pipette, room temperature, compared with 100 μM ADPR) is “significantly higher at room temperature”; in experiment [3] (100 μM in pipette, room temperature and 37 °C), “did not significantly differ from that with ADPR”.

For ADP-ribose-2′-phosphate [2′-P-ADPR], in experiment [1] (ref [21]), the TRPM2 agonism result is on record as “acts as partial agonist”.

On to Adenosine diphosphate ribose [ADPR], for which the TRPM2 agonism entry in experiment [1] (ref [20]) is “activates the channel”. For the same compound, in experiment [1] (removal of both intra- and extracellular Ca2+, ref [15]), the “Ca2+ dependence of TRPM2 activation by ADPR” value is “completely prevents activation of the channel by ADPR”. Also, the “effect of temperature >35 °C on evoked TRPM2 current” value in experiment [1] (temperatures >35 °C, ref [17]) was “significantly potentiates the current evoked by ADPR”. In experiment [2] (100 μM agonist in pipette, room temperature to 37 °C, median values), the “increase of current from room temperature to 37 °C” value was over 10 fold. Further, the “whole cell current at 37 °C” value in experiment [2] (100 μM agonist in pipette) came to 2.2 nA. Further, the “whole cell current at room temperature” value in experiment [2] (setting [5]) is 150 pA. The “effect of raising temperature to 37 °C on current” value in experiment [2] (setting [6]) was “significantly increased”; in experiment [3] (100 μM agonist in pipette, room temperature to 37 °C, one-way ANOVA, Bonferroni) it was “no significant increase”. Also, the “stabilizing effect on NudT9H” value in experiment [4] is “ruling out a stabilizing effect of ADPR on NudT9H”.
